Experimental data reported in US20240189449A1, “LIPID NANOPARTICLES AND POLYNUCLEOTIDES ENCODING ORNITHINE TRANSCARBAMYLASE FOR THE TREATMENT OF ORNITHINE TRANSCARBAMYLASE DEFICIENCY” (ModernaTX, Inc., priority 2021, published 2024).
Each block holds one molecule with its values, some of them ahead of it.

How the values were obtained:
[1] = system: CD-1 mice; test: hEPO expression in serum after IV lipid nanoparticles with hEPO mRNA, CD-1 mice; type: in vivo; settings: LNP with DSPC, cholesterol, Compound I; for Mean 6 hr hEPO Concentration: serum 6 hours after injection
Protocol: To assess potency of expression and metabolic stability of lipids of the disclosure, hepatocyte protein expression (hEPO) was measured following administration to mice of a nanoparticle of the disclosure.
(§1) Lipid nanoparticles including DSPC as a phospholipid, cholesterol as a structural lipid, Compound I as a PEG lipid, an ionizable amino lipid of Formula (II), and an mRNA encoding hEPO were intravenously administered to CD-1 mice. The concentration of hEPO in serum was tested at 6 hours after injection.

[2] = system: CD-1 mice; test: Parent lipid remaining in liver at 24 h, CD-1 mice (hEPO mRNA LNPs); type: in vivo; settings: for Approx. Percent Total Dose of Parent Lipid Remaining at 24 h: calculation assumes a 25 g mouse with a 1.5 g liver
[3] = system: CD-1 mice; test: NPI-Luciferase expression, ex vivo liver bioluminescence, CD-1 mice; type: in vivo; settings: mouse, IV
Protocol: (§2) To further assess potency of expression and metabolic stability of lipids of the disclosure, expression of luciferase was measured following administration to rodents of a nanoparticle of the disclosure comprising an mRNA containing luciferase.
as §1, with “luciferase” for “hEPO”, “mice and Sprague Dawley rats.” for “mice.”, “level” for “concentration”, “expression” for “hEPO in serum”, “tested via bioluminescence in the liver ex vivo” for “tested”

[4] = system: Sprague Dawley rats; test: NPI-Luciferase expression, ex vivo liver bioluminescence, Sprague Dawley rats; type: in vivo; settings: rat, IV
Protocol: as §2
as §1, with “luciferase” for “hEPO”, “mice and Sprague Dawley rats.” for “mice.”, “level” for “concentration”, “expression” for “hEPO in serum”, “tested via bioluminescence in the liver ex vivo” for “tested”

[5] = system: Sprague Dawley rats; test: Parent lipid remaining in liver tissue at 24 h, rats; type: in vivo; settings: rat
[6] = system: Sprague Dawley rats; test: Tolerability in rats: reporter antibody construct expression (ELISA) and liver toxicity; type: in vivo; settings: IV
Protocol: To assess tolerability of the lipids of the disclosure, expression of a reporter antibody construct induced by sample formulations was assessed in rats.
Lipid nanoparticles including DSPC as a phospholipid, cholesterol as a structural lipid, Compound I as a PEG lipid, an ionizable amino lipid of Formula (II), and an mRNA encoding a reporter antibody construct were intravenously administered to Sprague Dawley rats. […] For the formulations tested, high levels of the reporter antibody were measured with minimal signs of liver toxicity (Table 15).

[7] = system: cynomolgus monkeys; test: Luciferase level in livers ex vivo (ELISA), cynomolgus monkeys; settings: IV
Protocol: To the assess potency of expression and metabolic stability of lipids of the disclosure in different species, the expression of an mRNA was measured following administration to non-human primates of a nanoparticle of the disclosure containing the mRNA.
as §1, with “luciferase” for “hEPO”, “cynomolgus monkeys.” for “CD-1 mice.”, “level” for “concentration”, “livers ex vivo” for “serum”, “measured via ELISA” for “tested”

[8] = system: Sprague Dawley rats; test: hEPO expression in serum after IV lipid nanoparticles with hEPO mRNA, Sprague Dawley rats; type: in vivo; settings: serum 6 hours after injection
Protocol: To further assess potency of expression and metabolic stability of lipids of the disclosure, hepatocyte protein expression (hEPO) was measured following administration to rats of a nanoparticle of the disclosure.
as §1, with “Sprague Dawley rats.” for “CD-1 mice.”

Structure (SMILES): CCCCCCCCC(CCCCCCCC)OC(=O)CCCCCCCN(CCO)CCCCCCCC(=O)OCCC(CCCC)CCCC [Compound 22, 3-Butylheptyl 8-((8-(heptadecan-9-yloxy)-8-oxooctyl)(2-hydroxyethyl)amino)octanoate]
- hEPO AUC [1]: 2.03E+07
- Mean 6 hr hEPO Concentration [1]: 1264530 mIU/mL
- Parent Lipid Remaining (nmol/g liver tissue) at 24 h [2]: <0.1 nmol/g liver tissue
- Approx. Percent Total Dose of Parent Lipid Remaining at 24 h [2]: <0.1%
- Mean 6 h ex vivo Liver NPI-Luciferase Total Flux [3]: 300960000 photons/second
- Mean 6 h ex vivo Liver NPI-Luciferase Total Flux [4]: 2227666667 photons/second
- Approx. Percent Total Dose of Parent Lipid Remaining at 24 h [5]: <0.1%^
- Mean Reporter Antibody Construct Concentration [6]: 1113642 ng/mL
- Mean 6 h NPI-Luciferase Concentration [7]: 1322 ng/g

- Parent Lipid Remaining (nmol/g liver tissue) at 24 h [2]: 0.1 ± 0.04 nmol/g liver tissue
- Approx. Percent Total Dose of Parent Lipid Remaining at 24 h [2]: <0.1%
- Approx. Percent Total Dose of Parent Lipid Remaining at 24 h [5]: <0.1%^
Structure (SMILES): CCCCCC(CCCCC)CCOC(=O)CCCCCCCN(CCO)CCCCCCCC(=O)OCCC(CCCCC)CCCCC [Compound 25]
- hEPO AUC [1]: 1.07E+07
- Mean 6 hr hEPO Concentration [1]: 591942 mIU/mL
- Mean 6 h ex vivo Liver NPI-Luciferase Total Flux [3]: 336800000 photons/second
- Mean 6 h ex vivo Liver NPI-Luciferase Total Flux [4]: 4068000000 photons/second
- Mean Reporter Antibody Construct Concentration [6]: 948617 ng/mL

Structure (SMILES): CCCCCCCCC(CCCCCCCC)OC(=O)CCCCCCCN(CCCCCCCC(=O)OCCC(CCCC)CCCC)CCCNc1c(NC)c(=O)c1=O [Compound 27, 3-Butylheptyl 8-((8-(heptadecan-9-yloxy)-8-oxooctyl)(3-((2-(methylamino)-3,4-dioxocyclobut-1-en-1-yl)amino)propyl)amino)octanoate]
- hEPO AUC [1]: 2.10E+07
- Mean 6 hr hEPO Concentration [1]: 1316011 mIU/mL
- Parent Lipid Remaining (nmol/g liver tissue) at 24 h [2]: 27 ± 4 nmol/g liver tissue
- Approx. Percent Total Dose of Parent Lipid Remaining at 24 h [2]: 28%
- Mean 6 h ex vivo Liver NPI-Luciferase Total Flux [3]: 357720000 photons/second
- Mean 6 h ex vivo Liver NPI-Luciferase Total Flux [4]: 1215666667 photons/second
- Approx. Percent Total Dose of Parent Lipid Remaining at 24 h [5]: 28%
- Mean Reporter Antibody Construct Concentration [6]: 833698 ng/mL
- Mean 6 hr hEPO Concentration [8]: 664431 mIU/mL
- Mean 6 h NPI-Luciferase Concentration [7]: 878 ng/g
